From paper PMC8098682 (Chemical Science, 2021)

Biological target: T1, isocitrate lyase (ICL) (Salmonella enterica, UniProt P51066)
T1 sequence (P51066 1-434): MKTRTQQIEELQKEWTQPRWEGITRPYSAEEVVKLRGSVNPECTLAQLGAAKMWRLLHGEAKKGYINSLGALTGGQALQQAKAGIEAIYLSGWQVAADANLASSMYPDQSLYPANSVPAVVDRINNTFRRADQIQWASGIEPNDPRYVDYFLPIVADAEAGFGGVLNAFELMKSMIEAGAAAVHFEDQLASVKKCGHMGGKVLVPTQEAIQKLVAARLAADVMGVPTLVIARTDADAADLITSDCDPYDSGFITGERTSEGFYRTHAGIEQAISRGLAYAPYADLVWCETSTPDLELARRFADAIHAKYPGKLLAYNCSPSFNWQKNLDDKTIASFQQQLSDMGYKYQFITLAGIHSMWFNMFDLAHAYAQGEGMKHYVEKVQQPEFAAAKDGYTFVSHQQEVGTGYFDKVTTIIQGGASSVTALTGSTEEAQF
Experiment: enzyme activity assay of purified ICL
Format: biochemical

Compound: C=C(CC(=O)O)C(=O)O [ITA, itaconate]
- IC50: ~2600 µM
